Laboratory results from publication PMC7782499, “Progerinin, an optimized progerin-lamin A binding inhibitor, ameliorates premature senescence phenotypes of Hutchinson-Gilford progeria syndrome” (Communications Biology, 2021).

Tested on: Beagle dogs
Test: Maximum tolerated dose study in Beagle dogs, escalated-dose oral administration
Format: in vivo
Parameters: HGB: unit not given here
Settings: for A/G / ALB / ALP / ALT / AST / BASO / BUN / CHO / CRE / EOS / GLU / HCT / HGB / K+ / LYM / MCH / MCHC / MCV / MONO / NEU / Na+ / PLT / PRO / RBC / Reti / T-BIL / TG / WBC: ~24 h post dose
Excerpt: The protocol and procedures involving the care and use of animals in this study was reviewed and approved by IACUC of QuBEST BIO prior to conduct (Approval no.: QBSIACUC-A18142). During the study, the care and use of animals will be conducted in accordance with all applicable guidelines of Animal Welfare Act. Non-naive one male and one female Beagle dogs (~16–24 months old, original supplier: ORIENTBIO Co., Ltd, Korea) were selected from the stock colony and assigned for the study. The route of administration was the oral (by gavage) route, which is the anticipated clinical route of exposure. Test article formulations were administered once via oral gavage. The day of 1st dosing was designated as Day 1. Each dose was administered via a syringe attached with 12-french feeding tube. A dose volume of 5 ml/kg was used and individual dose volumes were based on the most recent body weight. Each dose was followed by a distilled water of 5 ml. Each animal was observed twice daily (a.m. and p.m.) for mortality and moribundity; findings were recorded as they were observed. Cage side observations were made for each animal once daily; abnormal findings were recorded. […] Body weights were measured prior to each dosing. […] Prior to dosing and ~24 h post each dose, blood was collected as the same method and frequency with hematology analysis using no anticoagulant and then serum was separated by centrifugation and stored at freezer until analyze (AU 400, Olympus, Japan; […] 744 Na^+/K^+/[…] Analyzer, SIEMENS, Germany). In terminal procedures, all surviving animals were returned to the stock colony without necropsy. Toxicity studies were performed by QuBEST BIO Co., Ltd (Yongin, Korea).
The objective of this study was to determine the maximum tolerated dose (MTD) of SLC-D011 following dose escalation by oral gavage to Beagle dogs.
The study group was detailed in Text Table 1.
Text Table 1. Study Group
Dose Level Dose Conc. No. of Animals†
Group Treatment (mg/kg) (mg/mL)
†: Animals were re-used for each dose with at least 4-day wash-out period.
The following parameters were evaluated in this study: mortality, clinical signs, body weights and clinical pathology parameters (hematology and serum biochemistry).
Mortality and Clinical Observations
All animals survived until end of the study. Test article-related clinical observations were limited to oily soft stool in the 100 mg/kg/day group animals and vomitus (frothy) and soft sto ol in the 400 […]
Clinical Pathology Parameters (Hematology and Serum Chemistry) […]
the 100 and 400 mg/kg group animals on approximately 24 hours post each dose, compared to pre […]
Based on the results of this study, the maximum tolerated dose (MTD) of SLC-D011 was considered to […]
Test article formulations were administered once via oral gavage. The day of 1st dosing was designated […]
Each dose was administered via a syringe attached with 12-french feeding tube. A dose volume of 5 mL/kg was used and individual dose volumes were based on the most recent body weight. Each dose was followed by a distilled water of 5 mL. […]
Each animal was observed twice daily (a.m. and p.m.) for mortality and moribundity; findings were recorded as they were observed. Cage side observations were made for each animal once daily; abnormal findings were recorded. Detailed observations were made for each animal once prior to treatment; abnormal findings (ranked/graded, if appropriate) or an indication the animal appears […]
Body weights were measured prior to each dosing. […]
Prior to each dosing and approximately 24 hours post each dose, blood samples for hematology examination were collected from the via cephalic vein into tubes with K2EDTA anticoagulant and […]
Parameters Unit Measurement Method
ⓐ RBC (Red blood cell count) 106/μL Electric Impedance […]
ⓒ HGB (Hemoglobin conc.) g/dL Cyanmethemoglobin […]

With CC1(C)Oc2cc3oc(=O)ccc3cc2C[C@@H]1OC/C=C/c1ccccc1 [SLC-D011] the Body weights (100 mg/kg/day group animals by Day 4) was “lower body weights were temporarily noted”, the “Hematology and serum chemistry parameters (in words)” value (100 and 400 mg/kg, ~24 hours post each dose vs pre dose) was “no toxicologically significant changes” and the A/G (female F1, 100 mg/kg) was 0.72. For the same molecule, the ALB (female F1, 100 mg/kg) was 2.62 g/dL, the ALP (female F1, 100 mg/kg) was 106.7 U/L and the ALT (female F1, 100 mg/kg) was 34.3 U/L. It also gave an AST (female F1, 100 mg/kg) of 41.7 U/L, a BASO (female F1, 100 mg/kg) of 0.6% and a BUN (female F1, 100 mg/kg) of 17.7 mg/dL. For the same molecule, the CHO (female F1, 100 mg/kg) was 189.4 mg/dL, the CRE (female F1, 100 mg/kg) was 0.82 mg/dL and the EOS (female F1, 100 mg/kg) was 1.2%. For the same molecule, the GLU (female F1, 100 mg/kg) was 96.4 mg/dL, the HCT (female F1, 100 mg/kg) was 47.8% and the HGB (female F1, 100 mg/kg) was 15.6. For the same molecule, the “K+” value (female F1, 100 mg/kg) was 4.5 mmol/L, the LYM (female F1, 100 mg/kg) was 39.9% and the MCH (female F1, 100 mg/kg) was 22.5 pg. It also gave an MCHC (female F1, 100 mg/kg) of 32.6 g/dL, an MCV (female F1, 100 mg/kg) of 68.9 fL and an MONO (female F1, 100 mg/kg) of 5.6%. The NEU (female F1, 100 mg/kg) was 52.3%, the “Na+” value (female F1, 100 mg/kg) was 141 mmol/L and the PLT (female F1, 100 mg/kg) was 357 K/uL. It also gave a PRO (female F1, 100 mg/kg) of 6.27 g/dL, an RBC (female F1, 100 mg/kg) of 6.93 M/uL and a Reti (female F1, 100 mg/kg) of 0.61%. The T-BIL (female F1, 100 mg/kg) was 0.18 mg/dL, the TG (female F1, 100 mg/kg) was 21.3 mg/dL and the WBC (female F1, 100 mg/kg) was 7.80 K/uL. It also gave an A/G (female F1, 400 mg/kg) of 0.78, an ALB (female F1, 400 mg/kg) of 2.53 g/dL and an ALP (female F1, 400 mg/kg) of 174.7 U/L. For the same molecule, the ALT (female F1, 400 mg/kg) was 39.1 U/L, the AST (female F1, 400 mg/kg) was 34.5 U/L and the BASO (female F1, 400 mg/kg) was 0.8%. The BUN (female F1, 400 mg/kg) was 12.08 mg/dL, the CHO (female F1, 400 mg/kg) was 175.1 mg/dL and the CRE (female F1, 400 mg/kg) was 0.85 mg/dL. The EOS (female F1, 400 mg/kg) was 1.4%, the GLU (female F1, 400 mg/kg) was 104.39 mg/dL and the HCT (female F1, 400 mg/kg) was 50.8%. For the same molecule, the HGB (female F1, 400 mg/kg) was 15.7, the “K+” value (female F1, 400 mg/kg) was 4.9 mmol/L and the LYM (female F1, 400 mg/kg) was 31.2%. The MCH (female F1, 400 mg/kg) was 22.2 pg, the MCHC (female F1, 400 mg/kg) was 30.9 g/dL and the MCV (female F1, 400 mg/kg) was 71.7 fL. For the same molecule, the MONO (female F1, 400 mg/kg) was 6.5%, the NEU (female F1, 400 mg/kg) was 59.6% and the “Na+” value (female F1, 400 mg/kg) was 143 mmol/L. For the same molecule, the PLT (female F1, 400 mg/kg) was 378 K/uL, the PRO (female F1, 400 mg/kg) was 5.76 g/dL and the RBC (female F1, 400 mg/kg) was 7.08 M/uL. The Reti (female F1, 400 mg/kg) was 0.95%, the T-BIL (female F1, 400 mg/kg) was 0.15 mg/dL and the TG (female F1, 400 mg/kg) was 29.3 mg/dL. For the same molecule, the WBC (female F1, 400 mg/kg) was 10.99 K/uL, the Mortality (female dog, 100 mg/kg) was 0/1 and the “Clinical Observations Day 1” value (female dog, 100 mg/kg, about 7 hours post dose) was “Soft stool (Oily)”. For the same molecule, the Mortality (female dog, 400 mg/kg) was 0/1, the “Clinical Observations Day 1” value (female dog, 400 mg/kg, about 6 hours post dose) was “Black soft stool” and the A/G (male M1, 100 mg/kg) was 0.58. For the same molecule, the ALB (male M1, 100 mg/kg) was 2.41 g/dL, the ALP (male M1, 100 mg/kg) was 83.4 U/L and the ALT (male M1, 100 mg/kg) was 43.1 U/L. The AST (male M1, 100 mg/kg) was 28 U/L, the BASO (male M1, 100 mg/kg) was 0.2% and the BUN (male M1, 100 mg/kg) was 16.83 mg/dL. For the same molecule, the CHO (male M1, 100 mg/kg) was 161 mg/dL, the CRE (male M1, 100 mg/kg) was 0.7 mg/dL and the EOS (male M1, 100 mg/kg) was 4.3%. For the same molecule, the HCT (male M1, 100 mg/kg) was 46.8%, the HGB (male M1, 100 mg/kg) was 15.4 and the “K+” value (male M1, 100 mg/kg) was 4.8 mmol/L. For the same molecule, the LYM (male M1, 100 mg/kg) was 32.4%, the MCH (male M1, 100 mg/kg) was 23.0 pg and the MCHC (male M1, 100 mg/kg) was 33.0 g/dL. For the same molecule, the MCV (male M1, 100 mg/kg) was 69.9 fL, the MONO (male M1, 100 mg/kg) was 7.1% and the NEU (male M1, 100 mg/kg) was 55.7%. The “Na+” value (male M1, 100 mg/kg) was 144 mmol/L, the PLT (male M1, 100 mg/kg) was 354 K/uL and the RBC (male M1, 100 mg/kg) was 6.69 M/uL. It also gave a Reti (male M1, 100 mg/kg) of 0.15%, a T-BIL (male M1, 100 mg/kg) of 0.1 mg/dL and a TG (male M1, 100 mg/kg) of 28.9 mg/dL. For the same molecule, the WBC (male M1, 100 mg/kg) was 8.83 K/uL, the A/G (male M1, 400 mg/kg) was 0.59 and the ALB (male M1, 400 mg/kg) was 2.37 g/dL. For the same molecule, the ALP (male M1, 400 mg/kg) was 94.3 U/L, the ALT (male M1, 400 mg/kg) was 74.9 U/L and the AST (male M1, 400 mg/kg) was 27.2 U/L. The BASO (male M1, 400 mg/kg) was 0.6%, the BUN (male M1, 400 mg/kg) was 16.17 mg/dL and the CHO (male M1, 400 mg/kg) was 142 mg/dL. For the same molecule, the CRE (male M1, 400 mg/kg) was 0.79 mg/dL, the EOS (male M1, 400 mg/kg) was 4.4% and the HCT (male M1, 400 mg/kg) was 50.5%. For the same molecule, the HGB (male M1, 400 mg/kg) was 15.2, the “K+” value (male M1, 400 mg/kg) was 5.1 mmol/L and the LYM (male M1, 400 mg/kg) was 25.1%. It also gave an MCH (male M1, 400 mg/kg) of 22.1 pg, an MCHC (male M1, 400 mg/kg) of 30.1 g/dL and an MCV (male M1, 400 mg/kg) of 73.2 fL. The MONO (male M1, 400 mg/kg) was 7.9%, the NEU (male M1, 400 mg/kg) was 61.7% and the “Na+” value (male M1, 400 mg/kg) was 146 mmol/L. The PLT (male M1, 400 mg/kg) was 347 K/uL, the RBC (male M1, 400 mg/kg) was 6.90 M/uL and the Reti (male M1, 400 mg/kg) was 0.34%. The T-BIL (male M1, 400 mg/kg) was 0.12 mg/dL, the TG (male M1, 400 mg/kg) was 34.4 mg/dL and the WBC (male M1, 400 mg/kg) was 9.43 K/uL. For the same molecule, the Mortality (male dog, 100 mg/kg) was 0/1, the “Clinical Observations Day 1” value (male dog, 100 mg/kg, about 7 hours post dose) was “Brown soft stool (Oily)” and the Mortality (male dog, 400 mg/kg) was 0/1. For the same molecule, the “Clinical Observations Day 1” value (male dog, 400 mg/kg, about 1 hours post dose) was “Vomitius (Frothy)” and the Tolerability (single oral administration at 100 and 400 mg/kg) was “well tolerated”.
